Experimental data reported in patent publication US9539260B2, “Dihydro-benzo-oxazine and dihydro-pyrido-oxazine derivatives” (Novartis AG, priority 2012, dated 2017).

How the values were obtained:
PI3K alpha = PI3K alpha (Homo sapiens (Human), UniProt P42336); test: Enzymatic PI3K alpha isoform inhibition (lipid kinase activity, Kinase-Glo luminescence); format: biochemical; settings: Enzymatic assay
Procedure, shortened: (§1)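 IC50s derive from 4-parameter logistic fits of % inhibition across 8 concentrations (usually 10 to 0.003 μM). Lipid kinase reaction: PI3K (10 nM) plus phosphatidylinositol (5 μg/mL) started with 2 μM ATP, stopped near 50% ATP depletion; leftover ATP quantified by Kinase-Glo luminescence.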

PI3K delta = PI3K delta (Homo sapiens (Human), UniProt O00329); test: Enzymatic PI3K delta isoform inhibition (lipid kinase activity, Kinase-Glo luminescence); format: biochemical; settings: Enzymatic assay
Procedure, shortened: as §1

PI3K alpha, sequence (P42336 other isoform, or with tags, fused parts or gaps): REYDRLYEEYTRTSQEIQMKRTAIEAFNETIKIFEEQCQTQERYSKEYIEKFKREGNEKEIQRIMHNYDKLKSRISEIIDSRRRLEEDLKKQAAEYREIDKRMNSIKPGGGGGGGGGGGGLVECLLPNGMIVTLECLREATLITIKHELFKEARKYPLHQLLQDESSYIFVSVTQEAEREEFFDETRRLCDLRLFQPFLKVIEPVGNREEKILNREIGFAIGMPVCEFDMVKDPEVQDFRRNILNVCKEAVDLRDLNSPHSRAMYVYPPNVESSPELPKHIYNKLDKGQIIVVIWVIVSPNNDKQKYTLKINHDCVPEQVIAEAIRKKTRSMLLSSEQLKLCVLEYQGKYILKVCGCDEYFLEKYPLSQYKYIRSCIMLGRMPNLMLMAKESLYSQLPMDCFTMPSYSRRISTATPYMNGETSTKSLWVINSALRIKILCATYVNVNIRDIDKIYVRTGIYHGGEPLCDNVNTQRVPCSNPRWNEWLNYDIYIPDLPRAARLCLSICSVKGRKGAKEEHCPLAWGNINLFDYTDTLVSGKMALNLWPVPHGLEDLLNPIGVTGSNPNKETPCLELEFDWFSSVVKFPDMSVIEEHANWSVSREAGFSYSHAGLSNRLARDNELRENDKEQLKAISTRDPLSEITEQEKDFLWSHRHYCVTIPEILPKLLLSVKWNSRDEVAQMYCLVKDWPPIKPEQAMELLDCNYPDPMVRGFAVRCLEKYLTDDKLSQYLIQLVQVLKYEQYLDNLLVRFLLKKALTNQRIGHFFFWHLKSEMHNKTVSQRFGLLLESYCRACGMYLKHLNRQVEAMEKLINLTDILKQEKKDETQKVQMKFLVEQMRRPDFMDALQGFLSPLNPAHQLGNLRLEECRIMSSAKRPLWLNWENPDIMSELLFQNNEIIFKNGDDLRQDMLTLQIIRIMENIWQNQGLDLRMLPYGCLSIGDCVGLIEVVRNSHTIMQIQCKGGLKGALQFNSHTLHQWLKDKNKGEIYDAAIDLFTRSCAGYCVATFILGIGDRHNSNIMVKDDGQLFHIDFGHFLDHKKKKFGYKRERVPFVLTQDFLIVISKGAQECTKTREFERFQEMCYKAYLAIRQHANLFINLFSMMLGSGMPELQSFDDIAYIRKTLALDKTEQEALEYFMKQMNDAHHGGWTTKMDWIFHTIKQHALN
PI3K delta, sequence (O00329 other isoform, or with tags, fused parts or gaps linker GGGGGG): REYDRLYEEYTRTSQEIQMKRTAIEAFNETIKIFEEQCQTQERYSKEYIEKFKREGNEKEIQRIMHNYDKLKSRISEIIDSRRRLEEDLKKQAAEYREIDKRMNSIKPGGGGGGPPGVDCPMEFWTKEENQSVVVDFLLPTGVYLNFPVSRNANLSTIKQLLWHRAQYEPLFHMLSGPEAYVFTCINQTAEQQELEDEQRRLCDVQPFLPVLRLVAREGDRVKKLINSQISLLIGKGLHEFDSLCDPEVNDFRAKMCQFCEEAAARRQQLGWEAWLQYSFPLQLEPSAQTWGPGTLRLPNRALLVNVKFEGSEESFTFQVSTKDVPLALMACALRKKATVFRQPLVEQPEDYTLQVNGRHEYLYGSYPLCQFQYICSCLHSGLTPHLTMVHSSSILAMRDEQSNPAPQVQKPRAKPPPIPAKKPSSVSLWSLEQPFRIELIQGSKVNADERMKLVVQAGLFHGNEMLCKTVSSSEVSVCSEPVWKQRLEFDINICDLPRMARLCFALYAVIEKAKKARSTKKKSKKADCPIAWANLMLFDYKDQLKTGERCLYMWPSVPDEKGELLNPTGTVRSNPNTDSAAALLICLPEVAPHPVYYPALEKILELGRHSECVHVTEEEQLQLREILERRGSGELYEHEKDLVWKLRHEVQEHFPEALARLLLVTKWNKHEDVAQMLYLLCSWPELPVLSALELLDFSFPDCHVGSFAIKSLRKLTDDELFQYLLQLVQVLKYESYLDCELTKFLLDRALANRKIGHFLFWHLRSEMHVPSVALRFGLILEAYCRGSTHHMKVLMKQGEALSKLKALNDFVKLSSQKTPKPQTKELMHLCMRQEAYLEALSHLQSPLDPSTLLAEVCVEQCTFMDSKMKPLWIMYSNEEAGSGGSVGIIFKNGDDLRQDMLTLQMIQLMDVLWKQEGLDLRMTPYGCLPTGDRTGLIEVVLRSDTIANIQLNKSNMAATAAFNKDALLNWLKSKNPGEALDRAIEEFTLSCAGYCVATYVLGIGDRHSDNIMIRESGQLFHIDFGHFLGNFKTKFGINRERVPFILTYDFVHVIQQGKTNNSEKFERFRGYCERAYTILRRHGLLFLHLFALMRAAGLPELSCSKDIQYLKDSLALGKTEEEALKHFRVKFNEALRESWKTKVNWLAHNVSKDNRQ

SMILES | IC50 (PI3K alpha) [µM] | IC50 (PI3K delta) [µM]
COc1ncc(N2CCOc3ccc(O[C@H]4CCN(C(=O)c5ccc(=O)n(C)c5)C4)cc32)cc1C#N [Example D17, 2-Methoxy-5-{6-[(S)-1-(1-methyl-6-oxo-1,6-dihydro-pyridine-3-carbonyl)-pyrrolidin-3-yloxy]-2,3-dihydro-benzo[1,4]oxazin-4-yl}-nicotinonitrile] | 0.705 | 0.012
COc1ncc(N2CCOc3ccc(O[C@H]4CCN(C(=O)c5cc[nH]c(=O)c5)C4)cc32)cc1C#N [Example D21, 2-Methoxy-5-{6-[(S)-1-(2-oxo-1,2-dihydro-pyridine-4-carbonyl)-pyrrolidin-3-yloxy]-2,3-dihydro-benzo[1,4]oxazin-4-yl}-nicotinonitrile] | 0.519 | 0.041
COc1ncc(N2CCOc3ccc(O[C@H]4CON(C(=O)C5CCOCC5)C4)cc32)cc1C#N [Example D22, 2-Methoxy-5-{6-[(R)-2-(tetrahydro-pyran-4-carbonyl)-isoxazolidin-4-yloxy]-2,3-dihydro-benzo[1,4]oxazin-4-yl}-nicotinonitrile] | 1.02 | 0.024
CCC(=O)N1C[C@@H](Oc2ccc3c(c2)N(c2cnc(OC)c(C#N)c2)CCO3)CO1 [Example D23, 2-Methoxy-5-[6-((R)-2-propionyl-isoxazolidin-4-yloxy)-2,3-dihydro-benzo[1,4]oxazin-4-yl]-nicotinonitrile] | 2.53 | 0.214
COc1ncc(N2CCOc3ccc(O[C@@H]4CON(C(=O)C5CCOCC5)C4)cc32)cc1C#N [Example D24, 2-Methoxy-5-{6-[(S)-2-(tetrahydro-pyran-4-carbonyl)-isoxazolidin-4-yloxy]-2,3-dihydro-benzo[1,4]oxazin-4-yl}-nicotinonitrile] | > 9.1 | 7.08
CCC(=O)N1C[C@H](Oc2ccc3c(c2)N(c2cnc(OC)c(C#N)c2)CCO3)CO1 [Example D25, 2-Methoxy-5-[6-((S)-2-propionyl-isoxazolidin-4-yloxy)-2,3-dihydro-benzo[1,4]oxazin-4-yl]-nicotinonitrile] | > 9.1 | 2.69
COc1ncc(N2CCOc3ccc(O[C@H]4CON(C(=O)c5cn(C)cn5)C4)cc32)cc1C#N [Example D26, 2-Methoxy-5-{6-[(R)-2-(1-methyl-1H-imidazole-4-carbonyl)-isoxazolidin-4-yloxy]-2,3-dihydro-benzo[1,4]oxazin-4-yl}-nicotinonitrile] | 1.24 | 0.028
COc1ncc(N2CCOc3ccc(O[C@H]4CCN(C(=O)c5cnn(C)c5)C4)cc32)cc1C#N [Example D27, 2-Methoxy-5-{6-[(S)-1-(1-methyl-1H-pyrazole-4-carbonyl)-pyrrolidin-3-yloxy]-2,3-dihydro-benzo[1,4]oxazin-4-yl}-nicotinonitrile] | 1.57 | 0.064
COc1ccc(N2CCOc3ccc(O[C@H]4CCN(C(=O)C5CCOCC5)C4)cc32)cn1 [Example D30, {(S)-3-[4-(6-Methoxy-pyridin-3-yl)-3,4-dihydro-2H-benzo[1,4]oxazin-6-yloxy]-pyrrolidin-1-yl}-(tetrahydro-pyran-4-yl)-methanone] | 5.15 | 0.127
COc1ncc(N2CCOc3ccc(O[C@H]4CCN(C(=O)C5CCNCC5)C4)cc32)cc1C#N [Example D38, 2-Methoxy-5-{6-[(S)-1-(piperidine-4-carbonyl)-pyrrolidin-3-yloxy]-2,3-dihydro-benzo[1,4]oxazin-4-yl}-nicotinonitrile] | 0.516 | 0.018
COc1ncc(N2CCOc3ccc(O[C@H]4CCN(C(=O)[C@H]5CCNC5)C4)cc32)cc1C#N [Example D39, 2-methoxy-5-{6-[(S)-1-((S)-pyrrolidine-3-carbonyl)-pyrrolidin-3-yloxy]-2,3-dihydro-benzo[1,4]oxazin-4-yl}-nicotinonitrile] | 0.987 | 0.036
COc1ncc(N2CCOc3ccc(O[C@H]4CCN(C(=O)[C@@H]5CCNC5)C4)cc32)cc1C#N [Example D40, 2-methoxy-5-{6-[(S)-1-((R)-pyrrolidine-3-carbonyl)-pyrrolidin-3-yloxy]-2,3-dihydro-benzo[1,4]oxazin-4-yl}-nicotinonitrile] | 0.705 | 0.025

Stronger by IC50 (PI3K alpha), values ahead:

IC50 (PI3K alpha) [µM] | IC50 (PI3K delta) [µM] | SMILES
0.281 | 0.019 | COc1ncc(N2CCOc3ccc(O[C@H]4CCN(C(=O)c5cocn5)C4)cc32)cc1C#N [Example D18, 2-Methoxy-5-{6-[(S)-1-(oxazole-4-carbonyl)-pyrrolidin-3-yloxy]-2,3-dihydro-benzo[1,4]oxazin-4-yl}-nicotinonitrile]
0.273 | 0.013 | COc1ncc(N2CCOc3ccc(O[C@H]4CCN(C(=O)c5ccn(C)c(=O)c5)C4)cc32)cc1C#N [Example D19, 2-Methoxy-5-{6-[(S)-1-(1-methyl-2-oxo-1,2-dihydro-pyridine-4-carbonyl)-pyrrolidin-3-yloxy]-2,3-dihydro-benzo[1,4]oxazin-4-yl}-nicotinonitrile]
0.206 | 0.007 | COc1ncc(N2CCOc3ccc(O[C@H]4CCN(C(=O)c5ccc(=O)[nH]c5)C4)cc32)cc1C#N [Example D20, 2-Methoxy-5-{6-[(S)-1-(6-oxo-1,6-dihydro-pyridine-3-carbonyl)-pyrrolidin-3-yloxy]-2,3-dihydro-benzo[1,4]oxazin-4-yl}-nicotinonitrile]
0.135 | 0.009 | COc1ncc(N2CCOc3ccc(O[C@H]4CCN(C(=O)c5cncn5C)C4)cc32)cc1C#N [Example D31, 2-Methoxy-5-{6-[(S)-1-(3-methyl-3H-imidazole-4-carbonyl)-pyrrolidin-3-yloxy]-2,3-dihydro-benzo[1,4]oxazin-4-yl}-nicotinonitrile]
0.094 | 0.009 | COc1ncc(N2CCOc3ccc(O[C@H]4CCN(C(=O)c5cnco5)C4)cc32)cc1C#N [Example D32, 2-Methoxy-5-{6-[(S)-1-(oxazole-5-carbonyl)-pyrrolidin-3-yloxy]-2,3-dihydro-benzo[1,4]oxazin-4-yl}-nicotinonitrile]
0.117 | 0.008 | COc1ncc(N2CCOc3ccc(O[C@H]4CCN(C(=O)c5ocnc5C)C4)cc32)cc1C#N [Example D33, 2-Methoxy-5-{6-[(S)-1-(4-methyl-oxazole-5-carbonyl)-pyrrolidin-3-yloxy]-2,3-dihydro-benzo[1,4]oxazin-4-yl}-nicotinonitrile]
0.273 | 0.009 | COc1ncc(N2CCOc3ccc(O[C@H]4CCN(C(=O)N5CCOCC5)C4)cc32)cc1C#N [Example D34, 2-Methoxy-5-{6-[(S)-1-(morpholine-4-carbonyl)-pyrrolidin-3-yloxy]-2,3-dihydro-benzo[1,4]oxazin-4-yl}-nicotinonitrile]
0.298 | 0.127 | COc1ncc(N2CCOc3ccc(O[C@H]4CCN(C(=O)Cc5cn(C)cn5)C4)cc32)cc1C#N [Example D37, 2-Methoxy-5-(6-{(S)-1-[2-(1-methyl-1H-imidazol-4-yl)-acetyl]-pyrrolidin-3-yloxy}-2,3-dihydro-benzo[1,4]oxazin-4-yl)-nicotinonitrile]
